Results: ChEMBL document CHEMBL1201862, “PubChem BioAssay data set” (2004)
“And” between values parts separate entries of the source, which are not always exact repeats. Identical values can stand only once.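 Cultured in 96-well plates, cells were exposed to test compound for 48 hours across five concentrations. At the GI50, growth is halved.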 The source made the active and inactive calls. No stated cut-off is given here; in the data, active = GI50 up to about 1.1 µM and inactive = higher.

Assays:
Experiment in all cases: inhibition of tumour cell growth, NCI panel, 48 h
SNB-78 = system: SNB-78
M19-MEL = system: M19-MEL
SK-MEL-28 = system: SK-MEL-28
NCI-H226 = system: NCI-H226
CAKI-1 = system: CAKI-1
HCC 2998 = system: HCC 2998
A498 = system: A498
COLO 205 = system: COLO 205
MCF7 = system: MCF7
SW-620 = system: SW-620
HCT-15 = system: HCT-15
LXFL 529 = system: LXFL 529
DMS-273 = system: DMS-273
UO-31 = system: UO-31
SR = system: SR
Malme-3M = system: Malme-3M
786-0 = system: 786-0
NCI-H460 = system: NCI-H460
CCRF-CEM = system: CCRF-CEM
NCI/ADR-RES = system: NCI/ADR-RES
KM-20L2 = system: KM-20L2
XF498 = system: XF498
PC-3 = system: PC-3
HOP-18 = system: HOP-18
RXF 631 = system: RXF 631
MDA-N = system: MDA-N
Hs-578T = system: Hs-578T
MOLT-4 = system: MOLT-4
OVCAR-5 = system: OVCAR-5
DMS-114 = system: DMS-114
SF-539 = system: SF-539
DLD-1 = system: DLD-1
LOX IMVI = system: LOX IMVI
HL-60 = system: HL-60
SK-MEL-2 = system: SK-MEL-2
SNB-75 = system: SNB-75
OVCAR-3 = system: OVCAR-3
M14 = system: M14
UACC-62 = system: UACC-62
HOP-92 = system: HOP-92
IGROV-1 = system: IGROV-1
NCI-H23 = system: NCI-H23
UACC-257 = system: UACC-257
A549 = system: A549
NCI-H522 = system: NCI-H522
MDA-MB-231 = system: MDA-MB-231
RXF 393 = system: RXF 393
OVCAR-4 = system: OVCAR-4
K562 = system: K562
KM12 = system: KM12
U-251 = system: U-251
SF-268 = system: SF-268
ACHN = system: ACHN
SK-MEL-5 = system: SK-MEL-5
SN12C = system: SN12C
DU-145 = system: DU-145
SF-295 = system: SF-295
HOP-62 = system: HOP-62
SK-OV-3 = system: SK-OV-3
T47D = system: T47D
OVCAR-8 = system: OVCAR-8
HCT-116 = system: HCT-116
SNB-19 = system: SNB-19
BT-549 = system: BT-549
RPMI-8226 = system: RPMI-8226
MDA-MB-435 = system: MDA-MB-435
EKVX = system: EKVX
HT-29 = system: HT-29
TK-10 = system: TK-10

COc1cccc2c1C(=O)c1c(O)c3c(c(O)c1C2=O)C[C@@](O)(C(C)=O)C[C@@H]3OC1CC(N)C(O)C(C)O1 (stereo partly drawn)
GI50 (SNB-78): 0.292 µM (active) | GI50 (M19-MEL): 0.08 µM (active) | GI50 (SK-MEL-28): 167 nM (active) and 303 nM (active) | GI50 (NCI-H226): 24 nM (active) and 34.6 nM (active) | GI50 (CAKI-1): 81.8 nM (active) and 99.1 nM (active) | GI50 (HCC 2998): 154 nM (active) and 167 nM (active) | GI50 (A498): 146 nM (active) and 197 nM (active) | GI50 (COLO 205): 156 nM (active) and 142 nM (active) | GI50 (MCF7): 0.00889 µM (active) | GI50 (SW-620): < 16.7 nM (active) and 22.9 nM (active) | GI50 (HCT-15): 0.721 µM and 0.689 µM | GI50 (LXFL 529): 0.0743 µM (active) | GI50 (DMS-273): 0.0889 µM (active) | GI50 (UO-31): 412 nM (active) and 413 nM (active) | GI50 (SR): 8.39 nM (active) and < 13.5 nM (active) | GI50 (Malme-3M): 30.3 nM (active) and 54.3 nM (active) | GI50 (786-0): < 17.8 nM (active) and 32.6 nM (active) | GI50 (NCI-H460): < 10 nM (active) and 5.94 nM (active) | GI50 (CCRF-CEM): < 10 nM (active) and 12.8 nM (active) | GI50 (NCI/ADR-RES): 2.42 µM (inactive) and 4.61 µM (inactive) | GI50 (KM-20L2): 0.194 µM (active) | GI50 (XF498): 0.069 µM (active) | GI50 (PC-3): 48 nM (active) and 78.9 nM (active) | GI50 (HOP-18): 0.118 µM (active) | GI50 (RXF 631): 0.115 µM (active) | GI50 (MDA-N): 168 nM (active) and 98.9 nM (active) | GI50 (Hs-578T): 168 nM (active) and 192 nM (active) | GI50 (MOLT-4): < 10 nM (active) and 6.34 nM (active) | GI50 (OVCAR-5): 201 nM (active) and 238 nM (active) | GI50 (DMS-114): 0.0371 µM (active) | GI50 (SF-539): 39.1 nM (active) and 48.3 nM (active) | GI50 (DLD-1): 0.309 µM (active) | GI50 (LOX IMVI): < 13.1 nM (active) and 24.9 nM (active) | GI50 (HL-60): < 11.4 nM (active) and 12.3 nM (active)

CS(=O)(=O)c1cc(=O)c2ccccc2s1
GI50 (SK-MEL-2): 15.3 µM (inactive) | GI50 (SNB-78): 4.99 µM (inactive) | GI50 (SNB-75): 16 µM (inactive) | GI50 (OVCAR-3): 2.61 µM (inactive) | GI50 (M19-MEL): 7.69 µM (inactive) | GI50 (M14): 1.85 µM (inactive) | GI50 (UACC-62): 12.2 µM (inactive) | GI50 (SK-MEL-28): 3.72 µM (inactive) | GI50 (HOP-92): 1.8 µM (inactive) | GI50 (NCI-H226): 13.7 µM (inactive) | GI50 (CAKI-1): 2.07 µM (inactive) | GI50 (HCC 2998): 14 µM (inactive) | GI50 (IGROV-1): 18.5 µM (inactive) | GI50 (NCI-H23): 9.06 µM (inactive) | GI50 (A498): 17.1 µM (inactive) | GI50 (COLO 205): 1.76 µM (inactive) | GI50 (UACC-257): 3.54 µM (inactive) | GI50 (A549): 18.4 µM (inactive) | GI50 (NCI-H522): 1.24 µM (inactive) | GI50 (MDA-MB-231): 15 µM (inactive) | GI50 (RXF 393): 3.91 µM (inactive) | GI50 (MCF7): 2.72 µM (inactive) | GI50 (SW-620): 1.86 µM (inactive) | GI50 (OVCAR-4): 2.9 µM (inactive) | GI50 (K562): 1.33 µM (inactive) | GI50 (HCT-15): 2.25 µM | GI50 (KM12): 15.5 µM (inactive) | GI50 (U-251): 19.7 µM (inactive) | GI50 (LXFL 529): 1.63 µM (inactive) | GI50 (SF-268): 14.1 µM (inactive) | GI50 (DMS-273): 8.77 µM (inactive) | GI50 (UO-31): 15.7 µM (inactive) | GI50 (ACHN): 2.74 µM (inactive) | GI50 (SR): 2.07 µM (inactive) | GI50 (Malme-3M): 1.8 µM (inactive) | GI50 (SK-MEL-5): 14.3 µM (inactive) | GI50 (SN12C): 9.53 µM (inactive) | GI50 (786-0): 5.55 µM (inactive) | GI50 (DU-145): 16.1 µM (inactive) | GI50 (NCI-H460): 18.1 µM (inactive) | GI50 (SF-295): 13.7 µM (inactive) | GI50 (CCRF-CEM): 1.53 µM (inactive) | GI50 (NCI/ADR-RES): 18 µM (inactive) | GI50 (KM-20L2): 11.7 µM (inactive) | GI50 (HOP-62): 20.5 µM (inactive) | GI50 (XF498): 2.14 µM (inactive) | GI50 (PC-3): 17.6 µM (inactive) | GI50 (HOP-18): 3.85 µM (inactive) | GI50 (RXF 631): 11 µM (inactive) | GI50 (SK-OV-3): 17.6 µM (inactive) | GI50 (T47D): 3.08 µM (inactive) | GI50 (MDA-N): 4.46 µM (inactive) | GI50 (Hs-578T): 26.6 µM (inactive) | GI50 (MOLT-4): 1.72 µM (inactive) | GI50 (OVCAR-8): 2.93 µM (inactive) | GI50 (OVCAR-5): 11.8 µM (inactive) | GI50 (DMS-114): 4.82 µM (inactive) | GI50 (SF-539): 13.2 µM (inactive) | GI50 (HCT-116): 1.96 µM (inactive) | GI50 (SNB-19): 17.5 µM (inactive) | GI50 (DLD-1): 1.91 µM (inactive) | GI50 (BT-549): 19.3 µM (inactive) | GI50 (RPMI-8226): 2.42 µM (inactive) | GI50 (LOX IMVI): 6.68 µM (inactive) | GI50 (HL-60): 1.84 µM (inactive) | GI50 (MDA-MB-435): 11 µM (inactive) | GI50 (EKVX): 9.06 µM (inactive) | GI50 (HT-29): 5.01 µM (inactive) | GI50 (TK-10): 7.28 µM (inactive)
